From patent US20100105655A1, “NOVEL COMPOUNDS 515” (ASTRAZENECA AB, priority 2008, published 2010)

Biological target: T1, IGFR kinase (Homo sapiens, UniProt P08069)
T1 construct: purchased Millipore
Test: Enzyme assay (c), IGFR kinase, Caliper LabChip
Assay type: biochemical
Details: 30 nM IGFR kinase, 6 uM ATP, 3 uM peptide mix; read-out: IGFR IC50

T1 sequence (P08069 31-1367): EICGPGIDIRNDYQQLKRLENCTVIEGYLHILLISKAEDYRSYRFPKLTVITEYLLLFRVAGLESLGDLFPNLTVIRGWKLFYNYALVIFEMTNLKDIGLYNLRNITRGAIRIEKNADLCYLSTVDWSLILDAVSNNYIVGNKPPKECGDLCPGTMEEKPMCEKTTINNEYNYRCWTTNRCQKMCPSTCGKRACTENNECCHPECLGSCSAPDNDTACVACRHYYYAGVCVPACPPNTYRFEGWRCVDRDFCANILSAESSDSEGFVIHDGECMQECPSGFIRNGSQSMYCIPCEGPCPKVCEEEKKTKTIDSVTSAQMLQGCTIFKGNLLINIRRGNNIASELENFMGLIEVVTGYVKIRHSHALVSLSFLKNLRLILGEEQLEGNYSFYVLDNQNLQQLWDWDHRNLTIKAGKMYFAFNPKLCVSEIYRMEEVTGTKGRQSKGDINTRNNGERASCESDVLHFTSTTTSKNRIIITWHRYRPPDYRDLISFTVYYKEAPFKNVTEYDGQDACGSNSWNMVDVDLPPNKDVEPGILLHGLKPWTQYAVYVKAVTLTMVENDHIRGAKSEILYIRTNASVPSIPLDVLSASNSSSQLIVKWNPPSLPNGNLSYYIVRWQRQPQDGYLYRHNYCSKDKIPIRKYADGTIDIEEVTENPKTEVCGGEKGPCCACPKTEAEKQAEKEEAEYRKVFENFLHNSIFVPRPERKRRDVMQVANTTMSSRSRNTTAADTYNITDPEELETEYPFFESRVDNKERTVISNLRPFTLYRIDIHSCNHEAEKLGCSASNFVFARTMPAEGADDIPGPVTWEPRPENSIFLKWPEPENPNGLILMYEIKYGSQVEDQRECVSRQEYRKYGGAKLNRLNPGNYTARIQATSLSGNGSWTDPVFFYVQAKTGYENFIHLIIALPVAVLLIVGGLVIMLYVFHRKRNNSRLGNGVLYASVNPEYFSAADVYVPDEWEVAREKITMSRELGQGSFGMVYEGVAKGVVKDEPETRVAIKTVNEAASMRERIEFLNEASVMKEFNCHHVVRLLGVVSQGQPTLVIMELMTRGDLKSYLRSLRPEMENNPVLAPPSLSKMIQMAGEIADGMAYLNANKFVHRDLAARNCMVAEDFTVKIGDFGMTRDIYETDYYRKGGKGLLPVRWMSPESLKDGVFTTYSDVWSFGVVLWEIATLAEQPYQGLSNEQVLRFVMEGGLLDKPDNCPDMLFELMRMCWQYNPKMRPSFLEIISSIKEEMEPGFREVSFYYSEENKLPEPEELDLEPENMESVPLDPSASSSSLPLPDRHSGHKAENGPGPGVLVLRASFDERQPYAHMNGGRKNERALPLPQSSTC

| IC50 [nM] | Compound |
| --- | --- |
| 22 | COc1cc(N2CCNCC2)ccc1Nc1ncc(C)c(-c2cnc3ccccn23)n1 [Example 98, 4-imidazo[1,2-a]pyridin-3-yl-N-(2-methoxy-4-piperazin-1-yl-phenyl)-5-methyl-pyrimidin-2-amine] |
| 5 | COc1cc(N2CCN(C(=O)CO)CC2)ccc1Nc1ncc(Cl)c(-c2cnc3ccc(F)cn23)n1 [Example 249, 1-[4-[4-[[5-chloro-4-(6-fluoroimidazo[1,2-a]pyridin-3-yl)pyrimidin-2-yl]amino]-3-methoxy-phenyl]piperazin-1-yl]-2-hydroxy-ethanone] |
| 6 | COc1cc(N(CCO)CCO)ccc1Nc1ncc(Cl)c(-c2cnc3c(F)cccn23)n1 [Example 223, 2-[4-[[5-chloro-4-(8-fluoroimidazo[1,2-a]pyridin-3-yl)pyrimidin-2-yl]amino]-N-(2-hydroxyethyl)-3-methoxy-anilino]ethanol] |
| 33 | COc1cc(C2CCOCC2)ccc1Nc1ncc(F)c(-c2cnc3ccccn23)n1 [Example 113, 5-fluoro-4-imidazo[1,2-a]pyridin-3-yl-N-(2-methoxy-4-tetrahydropyran-4-yl-phenyl)pyrimidin-2-amine] |
| 5 | COc1cc(N2CCN(CCO)CC2)ccc1Nc1ncc(Cl)c(-c2cnn3ccccc23)n1 [Example 134, 2-[4-[4-[(5-chloro-4-pyrazolo[1,5-a]pyridin-3-yl-pyrimidin-2-yl)amino]-3-methoxy-phenyl]piperazin-1-yl]ethanol] |
| 49 | COc1cc(N2CCC(O)CC2)ccc1Nc1ncc(F)c(-c2cnc3ccccn23)n1 [Example 111, 1-[4-[(5-fluoro-4-imidazo[1,2-a]pyridin-3-yl-pyrimidin-2-yl)amino]-3-methoxy-phenyl]piperidin-4-ol] |
| 19 | COc1cc(N2CC3CN(C(=O)CO)CC(C2)O3)ccc1Nc1ncc(Cl)c(-c2cnc3c(F)cccn23)n1 [Example 212, 1-[7-[4-[[5-chloro-4-(8-fluoroimidazo[1,2-a]pyridin-3-yl)pyrimidin-2-yl]amino]-3-methoxy-phenyl]-9-oxa-3,7-diazabicyclo[3.3.1]nonan-3-yl]-2-hydroxy-ethanone] |
| 60 | COc1cc(N2CCN(CCO)CC2)ccc1Nc1ncc(OC)c(-c2cnc3ccccn23)n1 [Example 95, 2-[4-[4-[(4-imidazo[1,2-a]pyridin-3-yl-5-methoxy-pyrimidin-2-yl)amino]-3-methoxy-phenyl]piperazin-1-yl]ethanol] |
| 14 | COc1ccc(N2CCNCC2)cc1Nc1ncc(Cl)c(-c2cnn3ccccc23)n1 [Example 147, 5-chloro-N-(2-methoxy-5-piperazin-1-yl-phenyl)-4-pyrazolo[1,5-a]pyridin-3-yl-pyrimidin-2-amine] |
| 47 | COc1cc(N2CCN(C(C)=O)CC2)ccc1Nc1ncc(C)c(-c2cnc3ccccn23)n1 [Example 97, 1-[4-[4-[(4-imidazo[1,2-a]pyridin-3-yl-5-methyl-pyrimidin-2-yl)amino]-3-methoxy-phenyl]piperazin-1-yl]ethanone] |
| 96 | COc1cc(C2CCN(C(C)=O)CC2)ccc1Nc1ncc(C2CC2)c(-c2cnc3c(F)cccn23)n1 [Example 202, 1-[4-[4-[[5-cyclopropyl-4-(8-fluoroimidazo[1,2-a]pyridin-3-yl)pyrimidin-2-yl]amino]-3-methoxy-phenyl]-1-piperidyl]ethanone] |
| 7 | CNC(=O)[C@H](C)Oc1ccc(Nc2ncc(Cl)c(-c3cnc4c(F)cccn34)n2)c(OC)c1 [Example 218, (2S)-2-[4-[[5-chloro-4-(8-fluoroimidazo[1,2-a]pyridin-3-yl)pyrimidin-2-yl]amino]-3-methoxy-phenoxy]-N-methyl-propanamide] |
| 5 | COc1cc(N2CCN(C(C)(C)CO)CC2)ccc1Nc1ncc(Cl)c(-c2cnn3ccccc23)n1 [Example 230, 2-[4-[4-[(5-chloro-4-pyrazolo[1,5-a]pyridin-3-yl-pyrimidin-2-yl)amino]-3-methoxy-phenyl]piperazin-1-yl]-2-methyl-propan-1-ol] |
| 6 | CNCC(=O)N1CCN(c2ccc(Nc3ncc(Cl)c(-c4cnc5c(F)cc(F)cn45)n3)c(OC)c2)CC1 [Example 248, 1-[4-[4-[[5-chloro-4-(6,8-difluoroimidazo[1,2-a]pyridin-3-yl)pyrimidin-2-yl]amino]-3-methoxy-phenyl]piperazin-1-yl]-2-(methylamino)ethanone] |
| 3 | COc1cc(N2CCN(C(=O)CO)CC2)ccc1Nc1ncc(Cl)c(-c2cnn3ccccc23)n1 [Example 130, 1-[4-[4-[(5-chloro-4-pyrazolo[1,5-a]pyridin-3-yl-pyrimidin-2-yl)amino]-3-methoxy-phenyl]piperazin-1-yl]-2-hydroxy-ethanone] |
| 36 | COc1cc(N2C[C@@H]3C[C@H]2CN3C(C)=O)ccc1Nc1ncc(Cl)c(-c2cnn3ccccc23)n1 [Example 241, 1-[(1S,4S)-2-[4-[(5-chloro-4-pyrazolo[1,5-a]pyridin-3-yl-pyrimidin-2-yl)amino]-3-methoxy-phenyl]-2,5-diazabicyclo[2.2.1]heptan-5-yl]ethanone] |

The remaining lines, values behind:

| Compound | IC50 [nM] |
| --- | --- |
| COc1ccc(N2CCNCC2)cc1Nc1ncc(F)c(-c2cnc3ccccn23)n1 [Example 75, 5-fluoro-4-imidazo[1,2-a]pyridin-3-yl-N-(2-methoxy-5-piperazin-1-yl-phenyl)pyrimidin-2-amine] | 172 |
| COc1cc(C(=O)N2CCN(CCO)CC2)ccc1Nc1ncc(Cl)c(-c2cnc3ccccn23)n1 [Example 32, [4-[(5-chloro-4-imidazo[1,2-a]pyridin-3-yl-pyrimidin-2-yl)amino]-3-methoxy-phenyl]-[4-(2-hydroxyethyl)piperazin-1-yl]methanone] | 19 |
| COc1cc(OC2CCN(C(=O)[C@H](C)O)CC2)ccc1Nc1ncc(Cl)c(-c2cnc3ccccn23)n1 [Example 9A, (2S)-1-[4-[4-[(5-chloro-4-imidazo[1,2-a]pyridin-3-yl-pyrimidin-2-yl)amino]-3-methoxy-phenoxy]-1-piperidyl]-2-hydroxy-propan-1-one] | 18 |
| COc1cc(N2CCN(C[C@H](C)O)CC2)ccc1Nc1ncc(Cl)c(-c2cnc3ccccn23)n1 [Example 50, (2S)-1-[4-[4-[(5-chloro-4-imidazo[1,2-a]pyridin-3-yl-pyrimidin-2-yl)amino]-3-methoxy-phenyl]piperazin-1-yl]propan-2-ol] | 8 |
| COc1cc(N2CC[C@@H](N)C2)ccc1Nc1ncc(Cl)c(-c2cnc3ccccn23)n1 [Example 71, N-[4-[(3R)-3-aminopyrrolidin-1-yl]-2-methoxy-phenyl]-5-chloro-4-imidazo[1,2-a]pyridin-3-yl-pyrimidin-2-amine] | 10 |
| COc1cc(CN2CCCOCC2)ccc1Nc1ncc(Cl)c(-c2cnc3ccccn23)n1 [Example 21.14, 5-chloro-4-imidazo[1,2-a]pyridin-3-yl-N-[2-methoxy-4-(1,4-oxazepan-4-ylmethyl)phenyl]pyrimidin-2-amine] | 28 |
| COc1cc(N2CCN(CC(C)(C)O)CC2)ccc1Nc1ncc(F)c(-c2cnc3ccccn23)n1 [Example 91, 1-[4-[4-[(5-fluoro-4-imidazo[1,2-a]pyridin-3-yl-pyrimidin-2-yl)amino]-3-methoxy-phenyl]piperazin-1-yl]-2-methyl-propan-2-ol] | 35 |
| COc1cc(N2CCNCC2)ccc1Nc1ncc(OC)c(-c2cnc3ccccn23)n1 [Example 93, 4-imidazo[1,2-a]pyridin-3-yl-5-methoxy-N-(2-methoxy-4-piperazin-1-yl-phenyl)pyrimidin-2-amine] | 27 |
| COc1ccc(N2CC[C@@H](N(C)C)C2)cc1Nc1ncc(Cl)c(-c2cnc3ccccn23)n1 [Example 3.13, 5-chloro-N-[5-[(3R)-3-dimethylaminopyrrolidin-1-yl]-2-methoxy-phenyl]-4-imidazo[1,2-a]pyridin-3-yl-pyrimidin-2-amine] | 60 |
| COc1cc(N2CCN(C(=O)N3CCNCC3)CC2)ccc1Nc1ncc(Cl)c(-c2cnc3ccccn23)n1 [Example 47.3, [4-[4-[(5-chloro-4-imidazo[1,2-a]pyridin-3-yl-pyrimidin-2-yl)amino]-3-methoxy-phenyl]piperazin-1-yl]-piperazin-1-yl-methanone] | 6 |
| COc1cc(N2CCN(CCC#N)CC2)ccc1Nc1ncc(Cl)c(-c2cnc3ccccn23)n1 [Example 49, 3-[4-[4-[(5-chloro-4-imidazo[1,2-a]pyridin-3-yl-pyrimidin-2-yl)amino]-3-methoxy-phenyl]piperazin-1-yl]propanenitrile] | 14 |
| COc1cc(C2CCN(C(C)=O)CC2)ccc1Nc1ncc(OC)c(-c2cnc3ccccn23)n1 [Example 94, 1-[4-[4-[(4-imidazo[1,2-a]pyridin-3-yl-5-methoxy-pyrimidin-2-yl)amino]-3-methoxy-phenyl]-1-piperidyl]ethanone] | 136 |
| COc1cc(N2CCN(C(=O)[C@@H](C)OC)CC2)ccc1Nc1ncc(Cl)c(-c2cnc3ccccn23)n1 [Example 25.5, (2R)-1-[4-[4-[(5-chloro-4-imidazo[1,2-a]pyridin-3-yl-pyrimidin-2-yl)amino]-3-methoxy-phenyl]piperazin-1-yl]-2-methoxy-propan-1-one] | 9 |
| COc1cc(N2CCN(CC(C)(C)O)CC2)ccc1Nc1ncc(Cl)c(-c2cnc3ccccn23)n1 [Example 52, 1-[4-[4-[(5-chloro-4-imidazo[1,2-a]pyridin-3-yl-pyrimidin-2-yl)amino]-3-methoxy-phenyl]piperazin-1-yl]-2-methyl-propan-2-ol] | 10 |
| COc1cc(N2CCN(C(=O)[C@@H]3CCCN3)CC2)ccc1Nc1ncc(Cl)c(-c2cnc3ccccn23)n1 [Example 23, [4-[4-[(5-chloro-4-imidazo[1,2-a]pyridin-3-yl-pyrimidin-2-yl)amino]-3-methoxy-phenyl]piperazin-1-yl]-[(2S)-pyrrolidin-2-yl]methanone] | 9 |
| COc1cc(CC(=O)NC2CCNC2)ccc1Nc1ncc(Cl)c(-c2cnc3ccccn23)n1 (centres unmarked) [Example 35, 2-[4-[(5-chloro-4-imidazo[1,2-a]pyridin-3-yl-pyrimidin-2-yl)amino]-3-methoxy-phenyl]-N-pyrrolidin-3-yl-acetamide] | 21 |
